Results on 39 compounds are retold here after patent publication US20250302775A1, “METHODS FOR THE TREATMENT OF DEPRESSION” (Autobahn Therapeutics, Inc., priority 2022, published 2025).

This assay has as its target T1, recombinant human FAAH (rhFAAH) (Homo sapiens, UniProt O00519).
T1 construct: purchased Cayman Chemical (Ann Arbor, MI, USA)
T1 sequence (O00519 1-579): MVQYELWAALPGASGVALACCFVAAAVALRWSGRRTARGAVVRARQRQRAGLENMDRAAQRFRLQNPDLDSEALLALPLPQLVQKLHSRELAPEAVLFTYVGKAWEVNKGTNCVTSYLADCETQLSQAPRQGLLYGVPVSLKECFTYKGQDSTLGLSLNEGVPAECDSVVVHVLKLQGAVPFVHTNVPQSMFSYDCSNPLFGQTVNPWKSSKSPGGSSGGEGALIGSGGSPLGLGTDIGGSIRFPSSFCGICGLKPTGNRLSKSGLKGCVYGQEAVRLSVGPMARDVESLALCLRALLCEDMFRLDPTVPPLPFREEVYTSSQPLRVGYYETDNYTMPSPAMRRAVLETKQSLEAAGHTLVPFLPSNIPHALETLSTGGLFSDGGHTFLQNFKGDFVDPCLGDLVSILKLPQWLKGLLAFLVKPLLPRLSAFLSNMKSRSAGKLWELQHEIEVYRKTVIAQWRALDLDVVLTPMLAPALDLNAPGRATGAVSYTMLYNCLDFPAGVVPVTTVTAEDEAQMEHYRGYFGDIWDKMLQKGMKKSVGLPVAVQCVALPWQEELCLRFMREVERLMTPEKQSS
Description: FAAH substrate evaluation: formation of acid metabolite. The note with it: 0.5 ng/μL rhFAAH, 1 μM test compound, room temperature, pH 8.0, 0-60 minutes. Type of assay: biochemical. The protocol: Purified recombinant human FAAH (rhFAAH) was purchased from Cayman Chemical (Ann Arbor, MI, USA). The total volume for each incubation was 400 μL containing a final 0.5 ng/μL rhFAAH, 1 μM test compound, 1.25% ethanol or 1 μM PF-3845 (FAAH inhibitor), and 0.1% bovine serum albumin in Tris-EDTA buffer at pH 8.0). The positive control was LL-341001. The incubation was conducted at the room temperature. At 0, 5, 15, 30 and 60 minutes, an aliquot of 30 μL reaction mixtures was removed and mixed with 300 μL acetonitrile containing 5 ng/mL terfenadine and 10 ng/mL tolbutamide as internal standards to quench the reaction. The resulting mixture was centrifuged at 4000 rpm, 4° C. for 15 minutes, and 100 μL supernatant was ready for LC-MS/MS analysis to measure the formation of acid metabolite.
Acquity Ultra Performance LC system from Waters was used for sample analysis. The chromatography was performed on a reverse phase Kinetex 2.6 μm C18 column, 2.1×30 mm, 100 Å. The mobile phase A comprised of 0.1% formic acid in water and mobile phase B comprised of 0.1% formic acid in acetonitrile with a 2-min run time at the flow rate of 0.8 mL/min for the acid metabolite from positive control or a 1.5 min run time at the flow rate of 0.9 mL/min for the acid metabolite of test compounds. The mass spectrometer (API-5500 and API Q Trap 4000 Applied Biosystems/MDS SCIEX Instruments, Framingham, MA, USA) was operated under ESI positive or negative ion MRM mode.
The formation of acid metabolite was monitored and quantified using one calibration point of 1 μM. The observed rate constant (ke) for the acid metabolite formation was calculated by plotting the metabolite concentration versus time of incubation with the slope being ke and is shown in Table 1.

For `CCNC(=O)COc1cc(Cl)c(Cc2ccc(O)c(C(C)C)c2)c(Cl)c1` [Compound 2], the “ke (observed rate constant for the acid metabolite formation)” value (shortened to “ke”) is on record as “A (A = ke is more than or equal to 0.1)”.
Take `CCCNC(=O)COc1cc(Cl)c(Cc2ccc(O)c(C(C)C)c2)c(Cl)c1` [Compound 3]: the “ke” value is “A (A = ke is more than or equal to 0.1)”.
For `C=CCNC(=O)COc1cc(Cl)c(Cc2ccc(O)c(C(C)C)c2)c(Cl)c1` [Compound 4], the “ke” value is “A (A = ke is more than or equal to 0.1)”.
Take `C#CCNC(=O)COc1cc(Cl)c(Cc2ccc(O)c(C(C)C)c2)c(Cl)c1` [Compound 5]: the “ke” value is “A (A = ke is more than or equal to 0.1)”.
Regarding `CC(C)c1cc(Cc2c(Cl)cc(OCC(=O)NCCO)cc2Cl)ccc1O` [Compound 6], the “ke” value was “A (A = ke is more than or equal to 0.1)”.
Then `CC(C)c1cc(Cc2c(Cl)cc(OCC(=O)NC[C@@H](C)O)cc2Cl)ccc1O` [Compound 7], with “B (B = ke is less than 0.1 and more than 0)”; and `CC(C)c1cc(Cc2c(Cl)cc(OCC(=O)NC[C@H](C)O)cc2Cl)ccc1O` [Compound 8], with “B (B = ke is less than 0.1 and more than 0)”.
To `CC(C)c1cc(Cc2c(Cl)cc(OCC(=O)N[C@H](C)CO)cc2Cl)ccc1O` [Compound 9] belongs “A (A = ke is more than or equal to 0.1)”; to `CC(C)c1cc(Cc2c(Cl)cc(OCC(=O)N[C@@H](C)CO)cc2Cl)ccc1O` [Compound 10], “A (A = ke is more than or equal to 0.1)”.
To `CC(C)c1cc(Cc2c(Cl)cc(OCC(=O)NC(CO)CO)cc2Cl)ccc1O` [Compound 11] belongs “B (B = ke is less than 0.1 and more than 0)”; to `CC(C)c1cc(Cc2c(Cl)cc(OCC(=O)NCCN)cc2Cl)ccc1O` [Compound 12], “B (B = ke is less than 0.1 and more than 0)”; to `CC(C)c1cc(Cc2c(Cl)cc(OCC(=O)NCCS(=O)O)cc2Cl)ccc1O` [Compound 13], “B (B = ke is less than 0.1 and more than 0)”.
Turning to `CC(C)c1cc(Cc2c(Cl)cc(OCC(=O)NCCF)cc2Cl)ccc1O` [Compound 14], the “ke” value is “A (A = ke is more than or equal to 0.1)”.
Then `CC(C)c1cc(Cc2c(Cl)cc(OCC(=O)NCC(F)F)cc2Cl)ccc1O` [Compound 15], with “A (A = ke is more than or equal to 0.1)”.
For `CC(C)c1cc(Cc2c(Cl)cc(OCC(=O)NCC(F)(F)F)cc2Cl)ccc1O` [Compound 16], the “ke” value was “A (A = ke is more than or equal to 0.1)”.
Then `CC(C)c1cc(Cc2c(Cl)cc(OCC(=O)NC3CC3)cc2Cl)ccc1O` [Compound 17], with “A (A = ke is more than or equal to 0.1)”.
To `CC(C)c1cc(Cc2c(Cl)cc(OCC(=O)NC3COC3)cc2Cl)ccc1O` [Compound 18] belongs “A (A = ke is more than or equal to 0.1)”; to `CC(C)c1cc(Cc2c(Cl)cc(OCC(=O)N(C)C)cc2Cl)ccc1O` [Compound 19], “B (B = ke is less than 0.1 and more than 0)”.
Then `CC(C)c1cc(Cc2c(Cl)cc(OCC(=O)Nc3ccccc3O)cc2Cl)ccc1O` [Compound 20], with “A (A = ke is more than or equal to 0.1)”; and `CC(C)c1cc(Cc2c(Cl)cc(OCC(=O)Nc3cccc(O)c3)cc2Cl)ccc1O` [Compound 21], with “A (A = ke is more than or equal to 0.1)”; and `CC(C)c1cc(Cc2c(Cl)cc(OCC(=O)NCc3ccccc3)cc2Cl)ccc1O` [Compound 22], with “A (A = ke is more than or equal to 0.1)”.
`CC(C)c1cc(Cc2c(Cl)cc(OCC(=O)NCCc3ccccc3)cc2Cl)ccc1O` [Compound 23]: the “ke” value is “B (B = ke is less than 0.1 and more than 0)”.
Then `CC(C)c1cc(Cc2c(Cl)cc(OCC(=O)NCCc3ccc(O)c(O)c3)cc2Cl)ccc1O` [Compound 24], with “B (B = ke is less than 0.1 and more than 0)”; and `CC(C)c1cc(Cc2c(Cl)cc(OCC(=O)Nc3cccc(F)c3)cc2Cl)ccc1O` [Compound 25], with “A (A = ke is more than or equal to 0.1)”.
On to `CC(C)c1cc(Cc2c(Cl)cc(OCC(=O)NO)cc2Cl)ccc1O` [Compound 26], for which the “ke” value is “A (A = ke is more than or equal to 0.1)”.
`CC(C)c1cc(Cc2c(Cl)cc(OCC(=O)NN)cc2Cl)ccc1O` [Compound 27]: the “ke” value was “A (A = ke is more than or equal to 0.1)”.
`CONC(=O)COc1cc(Cl)c(Cc2ccc(O)c(C(C)C)c2)c(Cl)c1` [Compound 28]: the “ke” value is recorded as “A (A = ke is more than or equal to 0.1)”.
To `CC(C)c1cc(Cc2c(Cl)cc(OCC(=O)NCC#N)cc2Cl)ccc1O` [Compound 29] belongs “A (A = ke is more than or equal to 0.1)”; to `CC(C)c1cc(Cc2c(Cl)cc(OCC(=O)NCCS(C)(=O)=O)cc2Cl)ccc1O` [Compound 30], “A (A = ke is more than or equal to 0.1)”; to `CC(C)c1c(O)ccc(Cc2c(Cl)cc(OCC(=O)N(C)C)cc2Cl)c1F` [Compound 32], “A (A = ke is more than or equal to 0.1)”.
To `CCNC(=O)COc1cc(Cl)c(Cc2ccc(O)c(C(C)C)c2F)c(Cl)c1` [Compound 33] belongs “A (A = ke is more than or equal to 0.1)”; to `CCN(C)C(=O)COc1cc(Cl)c(Cc2ccc(O)c(C(C)C)c2F)c(Cl)c1` [Compound 34], “C (C = ke is 0)”.
Consider `CC(C)c1c(O)ccc(Cc2c(Cl)cc(OCC(N)=O)cc2Cl)c1F` [Compound 35], for which the “ke” value was “A (A = ke is more than or equal to 0.1)”.
To `CC(C)c1c(O)ccc(Cc2c(Cl)cc(OCC(=O)NCCF)cc2Cl)c1F` [Compound 36] belongs “A (A = ke is more than or equal to 0.1)”; to `CNC(=O)COc1cc(Cl)c(Cc2ccc(O)c(C(C)C)c2)c(Cl)c1F` [Compound 37], “B (B = ke is less than 0.1 and more than 0)”; to `CC(C)c1cc(Cc2c(Cl)cc(OCC(=O)N(C)C)c(F)c2Cl)ccc1O` [Compound 38], “B (B = ke is less than 0.1 and more than 0)”.
To `CNC(=O)COc1cc(Cl)c(Cc2ccc(O)c(C(C)C)c2F)c(Cl)c1F` [Compound 39] belongs “B (B = ke is less than 0.1 and more than 0)”; to `CC(C)c1c(O)ccc(Cc2c(Cl)cc(OCC(=O)N(C)C)c(F)c2Cl)c1F` [Compound 40], “B (B = ke is less than 0.1 and more than 0)”; to `CNC(=O)COc1cc(F)c(Cc2ccc(O)c(C(C)C)c2)c(Cl)c1F` [Compound 42], “A (A = ke is more than or equal to 0.1)”.
